From PubChem BioAssay (NCI)
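Briefly, cells in 96-well plates were exposed to five compound concentrations for 48 h, and endpoints were estimated by linear interpolation. At the TGI there is no net growth.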

Columns and labels:
Test in all cases: NCI anticancer screen, dose series, 48 h
BT-549 breast = test system: BT-549 breast
SNB-19 CNS = test system: SNB-19 CNS
HS 578T breast = test system: HS 578T breast
MDA-N = test system: MDA-N
NCI-H226 lung = test system: NCI-H226 lung
SK-MEL-28 melanoma = test system: SK-MEL-28 melanoma
SK-MEL-2 melanoma = test system: SK-MEL-2 melanoma
MALME-3M melanoma = test system: MALME-3M melanoma
A498 renal = test system: A498 renal
CAKI-1 renal = test system: CAKI-1 renal
COLO 205 colon = test system: COLO 205 colon
SR leukemia = test system: SR leukemia
CCRF-CEM leukemia = test system: CCRF-CEM leukemia
K-562 leukemia = test system: K-562 leukemia
UACC-257 melanoma = test system: UACC-257 melanoma
HCC-2998 colon = test system: HCC-2998 colon
T-47D breast = test system: T-47D breast
EKVX NSCLC = test system: EKVX NSCLC
U251 CNS = test system: U251 CNS
MCF7 breast = test system: MCF7 breast
IGROV1 ovarian = test system: IGROV1 ovarian
HOP-62 NSCLC = test system: HOP-62 NSCLC
TK-10 renal = test system: TK-10 renal
MOLT-4 leukemia = test system: MOLT-4 leukemia
SN12C renal = test system: SN12C renal
RPMI-8226 leukemia = test system: RPMI-8226 leukemia
OVCAR-5 ovarian = test system: OVCAR-5 ovarian
SF-295 CNS = test system: SF-295 CNS
SF-539 CNS = test system: SF-539 CNS
NCI-H522 lung = test system: NCI-H522 lung
MDA-MB-231 breast = test system: MDA-MB-231 breast
SK-MEL-5 melanoma = test system: SK-MEL-5 melanoma
M14 melanoma = test system: M14 melanoma
PC-3 prostate = test system: PC-3 prostate
NCI-H460 lung = test system: NCI-H460 lung
786-0 renal = test system: 786-0 renal
HCT-116 colon = test system: HCT-116 colon
HT29 colon = test system: HT29 colon
HOP-92 NSCLC = test system: HOP-92 NSCLC
ACHN renal = test system: ACHN renal
SW-620 colon = test system: SW-620 colon
NCI/ADR-RES ovarian = test system: NCI/ADR-RES ovarian
A549 NSCLC = test system: A549 NSCLC
MDA-MB-435 = test system: MDA-MB-435
DU-145 prostate = test system: DU-145 prostate
OVCAR-8 ovarian = test system: OVCAR-8 ovarian
KM12 colon = test system: KM12 colon
SK-OV-3 ovarian = test system: SK-OV-3 ovarian
NCI-H23 lung = test system: NCI-H23 lung
SF-268 CNS = test system: SF-268 CNS
UACC-62 melanoma = test system: UACC-62 melanoma
HCT-15 colon = test system: HCT-15 colon
OVCAR-4 ovarian = test system: OVCAR-4 ovarian
SNB-75 CNS = test system: SNB-75 CNS
RXF 393 renal = test system: RXF 393 renal
HL-60(TB) leukemia = test system: HL-60(TB) leukemia
OVCAR-3 ovarian = test system: OVCAR-3 ovarian
UO-31 renal = test system: UO-31 renal
LOX IMVI melanoma = test system: LOX IMVI melanoma

## COc1cc(C)cc2c1C(=O)C(NC(C)=O)=CC2=O
BT-549 breast
  TGI: > 100 µM
SNB-19 CNS
  TGI: > 100 µM
HS 578T breast
  TGI: > 100 µM
MDA-N
  TGI: 32.8 µM
NCI-H226 lung
  TGI: > 100 µM
SK-MEL-28 melanoma
  TGI: > 100 µM
SK-MEL-2 melanoma
  TGI: > 100 µM
MALME-3M melanoma
  TGI: > 100 µM
A498 renal
  TGI: > 100 µM
CAKI-1 renal
  TGI: > 100 µM
COLO 205 colon
  TGI: > 100 µM
SR leukemia
  TGI: > 100 µM
CCRF-CEM leukemia
  TGI: > 100 µM
K-562 leukemia
  TGI: > 100 µM
UACC-257 melanoma
  TGI: > 100 µM
HCC-2998 colon
  TGI: > 100 µM
T-47D breast
  TGI: > 100 µM
EKVX NSCLC
  TGI: > 100 µM
U251 CNS
  TGI: > 100 µM
MCF7 breast
  TGI: > 100 µM
IGROV1 ovarian
  TGI: > 100 µM
HOP-62 NSCLC
  TGI: > 100 µM
TK-10 renal
  TGI: > 100 µM
MOLT-4 leukemia
  TGI: 88.7 µM
SN12C renal
  TGI: > 100 µM
RPMI-8226 leukemia
  TGI: > 100 µM
OVCAR-5 ovarian
  TGI: > 100 µM
SF-295 CNS
  TGI: > 100 µM
SF-539 CNS
  TGI: > 100 µM
NCI-H522 lung
  TGI: > 100 µM
MDA-MB-231 breast
  TGI: > 100 µM
SK-MEL-5 melanoma
  TGI: > 100 µM
M14 melanoma
  TGI: > 100 µM
PC-3 prostate
  TGI: > 100 µM
NCI-H460 lung
  TGI: > 100 µM
786-0 renal
  TGI: > 100 µM
HCT-116 colon
  TGI: > 100 µM
HT29 colon
  TGI: > 100 µM
HOP-92 NSCLC
  TGI: > 100 µM
ACHN renal
  TGI: > 100 µM
SW-620 colon
  TGI: > 100 µM
NCI/ADR-RES ovarian
  TGI: > 100 µM
A549 NSCLC
  TGI: > 100 µM
MDA-MB-435
  TGI: 31.3 µM
DU-145 prostate
  TGI: > 100 µM
OVCAR-8 ovarian
  TGI: > 100 µM
KM12 colon
  TGI: > 100 µM
SK-OV-3 ovarian
  TGI: > 100 µM
NCI-H23 lung
  TGI: > 100 µM
SF-268 CNS
  TGI: > 100 µM
UACC-62 melanoma
  TGI: > 100 µM
HCT-15 colon
  TGI: > 100 µM
OVCAR-4 ovarian
  TGI: 74.5 µM
SNB-75 CNS
  TGI: > 100 µM
RXF 393 renal
  TGI: > 100 µM
HL-60(TB) leukemia
  TGI: 53.2 µM
OVCAR-3 ovarian
  TGI: > 100 µM
UO-31 renal
  TGI: > 100 µM

## O=C1Nc2ccccc2C1(O)Cc1ccccn1 (stereo not given)
BT-549 breast
  TGI: > 100 µM
SNB-19 CNS
  TGI: > 100 µM
HS 578T breast
  TGI: > 100 µM
MDA-N
  TGI: > 100 µM
NCI-H226 lung
  TGI: > 100 µM
SK-MEL-28 melanoma
  TGI: > 100 µM
LOX IMVI melanoma
  TGI: > 100 µM
SK-MEL-2 melanoma
  TGI: > 100 µM
MALME-3M melanoma
  TGI: > 100 µM
A498 renal
  TGI: > 100 µM
CAKI-1 renal
  TGI: > 100 µM
COLO 205 colon
  TGI: > 100 µM
SR leukemia
  TGI: > 100 µM
CCRF-CEM leukemia
  TGI: > 100 µM
K-562 leukemia
  TGI: > 100 µM
UACC-257 melanoma
  TGI: > 100 µM
HCC-2998 colon
  TGI: > 100 µM
T-47D breast
  TGI: > 100 µM
EKVX NSCLC
  TGI: > 100 µM
U251 CNS
  TGI: > 100 µM
MCF7 breast
  TGI: > 100 µM
IGROV1 ovarian
  TGI: > 100 µM
HOP-62 NSCLC
  TGI: > 100 µM
TK-10 renal
  TGI: > 100 µM
SN12C renal
  TGI: > 100 µM
RPMI-8226 leukemia
  TGI: > 100 µM
OVCAR-5 ovarian
  TGI: > 100 µM
SF-295 CNS
  TGI: > 100 µM
NCI-H522 lung
  TGI: > 100 µM
MDA-MB-231 breast
  TGI: > 100 µM
SK-MEL-5 melanoma
  TGI: > 100 µM
M14 melanoma
  TGI: > 100 µM
PC-3 prostate
  TGI: > 100 µM
NCI-H460 lung
  TGI: > 100 µM
786-0 renal
  TGI: > 100 µM
HCT-116 colon
  TGI: > 100 µM
HT29 colon
  TGI: > 100 µM
HOP-92 NSCLC
  TGI: > 100 µM
ACHN renal
  TGI: > 100 µM
SW-620 colon
  TGI: > 100 µM
NCI/ADR-RES ovarian
  TGI: > 100 µM
A549 NSCLC
  TGI: > 100 µM
MDA-MB-435
  TGI: > 100 µM
DU-145 prostate
  TGI: > 100 µM
OVCAR-8 ovarian
  TGI: > 100 µM
KM12 colon
  TGI: > 100 µM
SK-OV-3 ovarian
  TGI: > 100 µM
NCI-H23 lung
  TGI: > 100 µM
SF-268 CNS
  TGI: > 100 µM
UACC-62 melanoma
  TGI: > 100 µM
HCT-15 colon
  TGI: > 100 µM
OVCAR-4 ovarian
  TGI: > 100 µM
SNB-75 CNS
  TGI: > 100 µM
RXF 393 renal
  TGI: > 100 µM
HL-60(TB) leukemia
  TGI: > 100 µM
OVCAR-3 ovarian
  TGI: > 100 µM
UO-31 renal
  TGI: > 100 µM
